Reference: ChEMBL document CHEMBL5625218, “An overview of limonoid synthetic derivatives as promising bioactive molecules” (Eur J Med Chem, 2023)
In brackets after ≈: the same amount, converted by molar mass.

Tests used:
Candida tropicalis = assay: Antimicrobial activity against Candida tropicalis ATCC 18803 assessed as reduction in microbial growth incubated for 24 hrs by broth micro dilution method; assay type: functional
Candida albicans = assay: Antimicrobial activity against Candida albicans ATCC 10231 assessed as reduction in microbial growth incubated for 24 hrs by broth micro dilution method; assay type: functional
Diutina rugosa = assay: Antimicrobial activity Candida rugosa DSM 2031 assessed as reduction in microbial growth incubated for 24 hrs by broth micro dilution method; assay type: functional
Candida parapsilosis = assay: Antimicrobial activity Candida parapsilosis ATCC 22019 assessed as reduction in microbial growth incubated for 24 hrs by broth micro dilution method; assay type: functional; conditions: Lodderomyces parapsilosis
Cryptococcus neoformans = assay: Antimicrobial activity Cryptococcus neoformans ATCC 28952 assessed as reduction in microbial growth incubated for 24 hrs by broth micro dilution method; assay type: functional
[1] = Antimicrobial activity Cryptococcus gattii VGI ATCC 2601 assessed as reduction in microbial growth incubated for 24 hrs by broth micro dilution method; assay type: functional
Staphylococcus aureus [2] = assay: Antibacterial activity against Staphylococcus aureus ATCC 25923 assessed as reduction in bacterial growth incubated for 24 hrs by CLSI based Mueller-Hinton broth assay; assay type: functional
Staphylococcus aureus [3] = assay: Antibacterial activity against methicillin-resistant Staphylococcus aureus 18032913 assessed as reduction in bacterial growth incubated for 24 hrs by CLSI based Mueller-Hinton broth assay; assay type: functional
Staphylococcus aureus [4] = assay: Antibacterial activity against methicillin-resistant Staphylococcus aureus 15019301 assessed as reduction in bacterial growth incubated for 24 hrs by CLSI based Mueller-Hinton broth assay; assay type: functional
Staphylococcus aureus [5] = assay: Antibacterial activity against methicillin-resistant Staphylococcus aureus 15012406 assessed as reduction in bacterial growth incubated for 24 hrs by CLSI based Mueller-Hinton broth assay; assay type: functional
Staphylococcus aureus [6] = assay: Antibacterial activity against methicillin-resistant Staphylococcus aureus 17045463 assessed as reduction in bacterial growth incubated for 24 hrs by CLSI based Mueller-Hinton broth assay; assay type: functional
Tobacco mosaic virus [7] = assay: Antiviral activity against TMV assessed as curative effect by measuring inhibition rate at 0.5 mg/ml measured after 72 hrs relative to control; assay type: functional; set-up: scale not given: the % may be the effect or the level left
Tobacco mosaic virus [8] = assay: Antiviral activity against TMV assessed as inactivation effect by measuring inhibition rate at 0.5 mg/ml measured after 72 hrs relative to control; assay type: functional; set-up: scale not given: the % may be the effect or the level left
Tobacco mosaic virus [9] = assay: Antiviral activity against TMV assessed as protection effect by measuring inhibition rate at 0.5 mg/ml measured after 72 hrs relative to control; assay type: functional; set-up: scale not given: the % may be the effect or the level left
ES-2 = assay: Anticancer activity against human ES2 cells assessed as reduction in cell viability incubated for 72 hrs by Alamar Blue assay; assay type: functional, cell-based; conditions: ES-2, 72 h
HepG2 = assay: Anticancer activity against human HepG2 cells assessed as reduction in cell viability incubated for 72 hrs by Alamar Blue assay; assay type: functional, cell-based; conditions: HepG2, 72 h
A549 = assay: Anticancer activity against human A549 cells assessed as reduction in cell viability incubated for 72 hrs by Alamar Blue assay; assay type: functional, cell-based; conditions: A549, 72 h
HOS = assay: Anticancer activity against human HOS cells assessed as reduction in cell viability incubated for 72 hrs by Alamar Blue assay; assay type: functional, cell-based
A 172 = assay: Anticancer activity against human A-172 cells assessed as reduction in cell viability incubated for 72 hrs by Alamar Blue assay; assay type: functional, cell-based; conditions: A 172, 72 h
HCT-116 = assay: Anticancer activity against human HCT-116 cells assessed as reduction in cell viability incubated for 72 hrs by MTT assay; assay type: functional, cell-based; conditions: HCT-116, 72 h
MDA-MB-231 = assay: Anticancer activity against human MDA-MB-231 cells assessed as reduction in cell viability incubated for 72 hrs by Alamar Blue assay; assay type: functional, cell-based; conditions: MDA-MB-231, 72 h
Plasmodium falciparum = assay: Antiplasmodial activity against Plasmodium falciparum W2 infected in human erythrocytes assessed as reduction in parasite growth incubated for 48 hrs by YOYO-1 dye based flow cytometric analysis; assay type: functional, organism-based; conditions: W2, 48 h
[10] = target: Voltage-gated inwardly rectifying potassium channel KCNH2 (Homo sapiens, UniProt Q12809); assay: Inhibition of hERG; assay type: toxicity
Sequence of Voltage-gated inwardly rectifying potassium channel KCNH2 (Q12809 whole entry): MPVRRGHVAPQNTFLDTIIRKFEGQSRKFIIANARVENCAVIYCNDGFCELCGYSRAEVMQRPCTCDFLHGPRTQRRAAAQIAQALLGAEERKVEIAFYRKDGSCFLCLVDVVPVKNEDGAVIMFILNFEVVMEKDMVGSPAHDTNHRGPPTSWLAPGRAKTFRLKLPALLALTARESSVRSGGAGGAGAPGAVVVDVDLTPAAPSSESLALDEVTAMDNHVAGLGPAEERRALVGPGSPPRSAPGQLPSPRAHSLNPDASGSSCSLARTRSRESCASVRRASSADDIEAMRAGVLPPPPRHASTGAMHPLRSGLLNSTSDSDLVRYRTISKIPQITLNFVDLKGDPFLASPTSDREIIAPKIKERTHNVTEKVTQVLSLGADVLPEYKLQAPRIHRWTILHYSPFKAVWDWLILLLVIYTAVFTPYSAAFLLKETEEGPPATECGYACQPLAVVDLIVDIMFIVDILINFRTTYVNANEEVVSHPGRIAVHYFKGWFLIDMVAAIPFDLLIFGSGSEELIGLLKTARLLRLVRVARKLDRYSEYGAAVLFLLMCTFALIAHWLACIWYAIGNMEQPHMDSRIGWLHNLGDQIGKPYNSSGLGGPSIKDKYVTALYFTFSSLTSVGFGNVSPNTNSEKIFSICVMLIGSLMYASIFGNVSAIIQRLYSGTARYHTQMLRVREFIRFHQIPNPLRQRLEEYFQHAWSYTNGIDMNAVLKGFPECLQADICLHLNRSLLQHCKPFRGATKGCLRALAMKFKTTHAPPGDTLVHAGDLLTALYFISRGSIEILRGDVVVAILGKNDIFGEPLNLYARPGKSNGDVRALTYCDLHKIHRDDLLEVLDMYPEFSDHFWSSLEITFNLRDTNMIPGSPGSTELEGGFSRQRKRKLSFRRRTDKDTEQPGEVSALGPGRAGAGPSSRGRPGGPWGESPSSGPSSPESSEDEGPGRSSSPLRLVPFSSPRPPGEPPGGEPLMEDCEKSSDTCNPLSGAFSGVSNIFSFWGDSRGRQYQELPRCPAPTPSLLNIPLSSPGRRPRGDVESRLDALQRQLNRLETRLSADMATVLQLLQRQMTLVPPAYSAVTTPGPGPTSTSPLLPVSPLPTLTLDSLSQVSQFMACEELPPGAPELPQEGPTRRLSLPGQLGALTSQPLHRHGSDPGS

Mus musculus [11] = assay: Anti-inflammatory activity in mouse model of xylene-induced auricle edema assessed as inhibition of ear swelling at 70 mg/ml, IG pre-treated for 1 hr followed by xylene addition and measured after 1 hr relative to control; assay type: functional; set-up: scale not given: the % may be the effect or the level left; conditions: time 2 hrs
Mus musculus [12] = assay: Antinociceptive activity in ip dosed mouse assessed as inhibition of acetic acid-induced abdominal constrictions by writhing test at 70 mg/ml relative to control; assay type: functional; set-up: scale not given: the % may be the effect or the level left

Molecule `CC1(C)O[C@@H](CC(=O)NCc2cn(Cc3ccc(Br)cc3)nn2)[C@@]2(CO)[C@H]1CC(=O)[C@@]1(C)C3=CC(=O)O[C@@H](c4ccoc4)[C@]3(C)CC[C@@H]12` has an MIC (Candida tropicalis) of 34 µM, an MIC (Candida albicans) of 34 µM and an MIC (Diutina rugosa) of 34 µM. For the same molecule, the MIC (Candida parapsilosis) was 34 µM, the MIC (Cryptococcus neoformans) was 34 µM and the MIC [1] was 34 µM.
With `CC(=O)O[C@H](c1ccoc1)[C@@H]1CCC[C@H](C)C1=O` the MIC50 (Staphylococcus aureus [2]) was 12 µg/mL (≈ 47.9 µM), the MIC50 (Staphylococcus aureus [3]) was 64 µg/mL (≈ 256 µM) and the MIC50 (Staphylococcus aureus [4]) was 64 µg/mL (≈ 256 µM). For the same molecule, the MIC50 (Staphylococcus aureus [5]) was 128 µg/mL (≈ 511 µM) and the MIC50 (Staphylococcus aureus [6]) was 128 µg/mL (≈ 511 µM).
In the case of `CC1(C)OC(=O)C=C[C@]2(C)[C@H]3CC[C@@]4(C)[C@H](c5ccoc5)OC(=O)[C@H]5O[C@]54[C@]3(C)OC(=O)C[C@@H]12`, the Activity (Tobacco mosaic virus [7]) is reported as 17.5%, the Activity (Tobacco mosaic virus [8]) is reported as 56.5% and the Activity (Tobacco mosaic virus [9]) is reported as 30%.
`C#CCO[C@H]1C=C(C(C)C)[C@]2(CCCC(=O)O2)[C@H]2CC[C@]3(C)C(=CC(=O)O[C@H]3c3ccoc3)[C@]12C` gave an IC50 (ES-2) of 580 nM, an IC50 (HepG2) of 7.1 µM and an IC50 (A549) of 2.59 µM. The IC50 (HOS) was 1610 nM, the IC50 (A 172) was 780 nM and the IC50 (HCT-116) was 1600 nM. For the same molecule, the IC50 (MDA-MB-231) was 0.64 µM.
Molecule `CC1(C)O[C@H]2CC(=O)OC[C@]23[C@H]2CC[C@@]4(C)[C@H](c5ccoc5)OC(=O)[C@H]5O[C@]54[C@]2(C)[C@@H](OC(=O)C/C=C/c2ccccc2)C[C@@H]13` has an Activity (Tobacco mosaic virus [7]) of 41.7%, an Activity (Tobacco mosaic virus [8]) of 65.7% and an Activity (Tobacco mosaic virus [9]) of 29.3%.
In the case of `CC1(C)O[C@H]2CC(=O)OC[C@]23[C@H]2CC[C@]4(C)C(=CC(=O)O[C@H]4c4coc(C(=O)CCl)c4)[C@]2(C)OC(=O)C[C@@H]13`, the IC50 (ES-2) is reported as 3650 nM, the IC50 (HepG2) is reported as 8.45 µM and the IC50 (A549) is reported as 7.62 µM. It also gave an IC50 (HOS) of 3880 nM, an IC50 (A 172) of 1710 nM and an IC50 (HCT-116) of 3280 nM. It also gave an IC50 (MDA-MB-231) of 5.53 µM.
Molecule `CC(=O)O[C@H]1CC(=O)OC(C)(C)[C@@H]2C[C@@H](OC(C)=O)[C@]3(C)[C@H](CC[C@@]4(C)[C@H](c5ccoc5)OC(=O)[C@H]5O[C@@]534)[C@@]12C` has an IC50 (Plasmodium falciparum) of 16.5 µM.
Molecule `CC1(C)O[C@H]2CC(=O)OC[C@]23[C@H]2CC[C@@]4(C)[C@H](c5coc(C(=O)CCCCN6CCOCC6)c5)OC(=O)[C@H]5O[C@]54[C@]2(C)C(=O)C[C@@H]13` has an IC50 [10] of over 100 µM.
For `COC(=O)C[C@H](OC(C)=O)[C@]1(C)[C@H]2CC[C@@]3(C)[C@H](c4ccoc4)OC(=O)[C@H]4O[C@]43[C@]2(C)[C@H](OC(C)=O)C[C@H]1C(C)(C)O`, the IC50 (Plasmodium falciparum) was 18.3 µM.
`C[C@H]1CCC[C@@H]([C@H](O)c2ccoc2)C1=O` showed an MIC50 (Staphylococcus aureus [2]) of 512 µg/mL (≈ 2460 µM), an MIC50 (Staphylococcus aureus [4]) of 512 µg/mL (≈ 2460 µM) and an MIC50 (Staphylococcus aureus [5]) of 512 µg/mL (≈ 2460 µM).
`CC1(C)O[C@H]2CC(=O)OC[C@]23[C@H]2CC[C@@]4(C)[C@H](c5ccoc5)OC(=O)[C@H]5O[C@]54[C@]2(C)[C@@H](NC(=O)CCN2CCOCC2)C[C@@H]13.Cl` showed an Activity (Mus musculus [11]) of 58.15% and an Activity (Mus musculus [12]) of 57.35%.
For `CC1(C)O[C@H]2CC(=O)OC[C@@]23[C@H]1C[C@H](NC(=O)CCN1CCOCC1)[C@@]1(C)C2=CC(=O)O[C@@H](c4ccoc4)[C@]2(C)CC[C@@H]13.Cl`, the Activity (Mus musculus [11]) was 24.04% and the Activity (Mus musculus [12]) was 54.3%.
`CC1(C)O[C@H]2CC(=O)OC[C@]23[C@H]2CC[C@@]4(C)[C@H](c5ccoc5)OC(=O)[C@H]5O[C@]54[C@]2(C)C(=O)C[C@@H]13` [LIMONIN] gave an Activity (Tobacco mosaic virus [7]) of 5.8%, an Activity (Tobacco mosaic virus [8]) of 41.9% and an Activity (Tobacco mosaic virus [9]) of 27.4%.
In the case of `C[C@H]1CCC[C@@H]([C@@H](O)c2ccoc2)C1=O`, the MIC50 (Staphylococcus aureus [2]) is reported as 512 µg/mL (≈ 2460 µM), the MIC50 (Staphylococcus aureus [4]) is reported as 512 µg/mL (≈ 2460 µM) and the MIC50 (Staphylococcus aureus [5]) is reported as 512 µg/mL (≈ 2460 µM).
In the case of `CC(=O)O[C@@H](c1ccoc1)[C@@H]1CCC[C@H](C)C1=O`, the MIC50 (Staphylococcus aureus [2]) is reported as 12 µg/mL (≈ 47.9 µM), the MIC50 (Staphylococcus aureus [3]) is reported as 64 µg/mL (≈ 256 µM) and the MIC50 (Staphylococcus aureus [4]) is reported as 64 µg/mL (≈ 256 µM). For the same molecule, the MIC50 (Staphylococcus aureus [5]) was 128 µg/mL (≈ 511 µM) and the MIC50 (Staphylococcus aureus [6]) was 128 µg/mL (≈ 511 µM).
For `CC1(C)O[C@H]2CC(=O)OC[C@]23[C@H]2CC[C@@]4(C)[C@H](c5ccoc5)OC(=O)[C@H]5O[C@]54[C@]2(C)OC(=O)C[C@@H]13`, the Activity (Tobacco mosaic virus [7]) was 13.1%, the Activity (Tobacco mosaic virus [8]) was 44.8% and the Activity (Tobacco mosaic virus [9]) was 23.6%.
In the case of `CC1(C)OC(=O)C=C[C@]2(C)[C@H]3CC[C@@]4(C)[C@H](c5ccoc5)OC(=O)[C@H]5O[C@]54[C@]3(C)C(=O)C[C@@H]12` [OBACUNONE], the Activity (Tobacco mosaic virus [7]) is reported as 7.7%, the Activity (Tobacco mosaic virus [8]) is reported as 35.2% and the Activity (Tobacco mosaic virus [9]) is reported as 21.5%.
